The source of these data is PMC9695041, “The Anti-Breast Cancer Activity of Dihydroartemisinin-5-methylisatin Hybrids Tethered via Different Carbon Spacers” (Molecules, 2022).

Some results are limits rather than exact numbers.

Data set [1] relates to MDA-MB-231/ADR breast cancer cell line. Description: MTT antiproliferative assay, MDA-MB-231/ADR. The class given is cell-based. The following applies: MDA-MB-231/ADR (drug-resistant). Background: Tetrazolium dyes change colour on reduction, which living cells bring about.
Experimental: (§1) The antiproliferative activity and cytotoxicity of DHA-5-methylisatin hybrids 6a–c and 7a–m against MCF-7, MDA-MB-231, MCF-7/ADR, and MDA-MB-231/ADR (Purchased from Procell) breast cancer cell lines as well as MCF-10A were assessed by 3-(4,5-dimethylthiazol-2-yl)-2,5-diphenyltetrazolium bromide (MTT) assay.
(§2) MCF-7, MDA-MB-231, MCF-7/ADR, and MDA-MB-231/ADR breast cancer cell lines (2 × 10^3) were plated in each well of a 96-well plate and were allowed to adhere and spread for 24 h. The dihydroartemisinin-5-methylisatin hybrids 6a–e and 7a–m were added to a final concentration of 100 µM, and the cells were cultured for 24 h at 37 °C. 3-(4,5-dimethyl-2-thiazolyl)-2,5-diphenyltetrazolium bromide (MTT) solution (10 µL) was added to each well, and the cultures were incubated for an additional 4 h. A further 100 µL of MTT solution was added and incubation continued overnight. The absorbance at 540 nm was determined in each well with a 96-well plate reader. The growth of the treated cells was compared with that of untreated cells.
Data set [2] deals with MCF-7/ADR breast cancer cell line. As to the kind of experiment: MTT antiproliferative assay, MCF-7/ADR. The class given is cell-based. Particulars: MCF-7/ADR (drug-resistant).
Experimental: as §1, §2
Data set [3] deals with MDA-MB-231 breast cancer cell line. Description: MTT antiproliferative assay, MDA-MB-231. The class given is cell-based. Particulars: for IC50: MDA-MB-231, MTT assay.
Experimental: as §1, §2
Data set [4] has as its system normal MCF-10A breast cells.
Experimental: as §1, §2
Data set [5] has as its system MCF-7 breast cancer cell line. As to the kind of experiment: MTT antiproliferative assay, MCF-7. The format is cell-based. The following applies: for IC50: MCF-7, MTT assay.
Experimental: as §1, §2
A short description of data set [6]: MTT cytotoxicity assay, MCF-10A. The following applies: human, MCF-10A normal breast cells.
Experimental: as §1, §2
For data set [7], the system named is MCF-7, MDA-MB-231, MCF-7/ADR, and MDA-MB-231/ADR breast cancer cell lines. As to the kind of experiment: MTT antiproliferative assay, summary over the breast cancer cell line panel. Particulars: range over the four breast cancer cell lines; read-out: IC50 range across MCF-7, MDA-MB-231, MCF-7/ADR and MDA-MB-231/ADR. The class given is cell-based.
Experimental: as §1, §2

Regarding “3-((Benzyloxy)imino)-6-methyl-1-(3-(((3R,5aS,6R,8aS,9R,12R,12aR)-3,6,9-trimethyldecahydro-12H-3,12-epoxy[1,2]dioxepino[4,3-i]isochromen-10-yl)oxy)propyl)indolin-2-one [Hybrid 7l]”, the IC50 in data set [1], in data set [2], in data set [3], in data set [4] and in data set [5] was greater than 100 µM each time.

Regarding “3-(Methoxyimino)-1-(4-(((3R,5aS,6R,8aS,9R,12R,12aR)-3,6,9-trimethyldecahydro-12H-3,12-epoxy[1,2]dioxepino[4,3-i]isochromen-10-yl)oxy)butyl)indolin-2-one [Hybrid 7h]”, the IC50 in data set [1] was 80.3 µM; in data set [2], 77.5 µM; in data set [3], 73.9 µM; in data set [4], greater than 100 µM; in data set [5], 85.2 µM.

For `Cc1ccc2c(c1)C(=NO)C(=O)N2CCOC1O[C@@H]2O[C@@]3(C)CC[C@H]4[C@H](C)CC[C@@H]([C@H]1C)[C@@]24OO3` (stereo partly drawn) [Hybrid 7a, 3-(Hydroxyimino)-5-methyl-1-(2-(((3R,5aS,6R,8aS,9R,12R,12aR)-3,6,9-trimethyldecahydro-12H-3,12-epoxy[1,2]dioxepino[4,3-i]isochromen-10-yl)oxy)ethyl)indolin-2-one], the IC50 in data set [1] (Homo sapiens) was 18.8 µM; in data set [7] it was 15.3 to 20.1 µM; in data set [2] (Homo sapiens, NCI/ADR-RES), 20.1 µM; in data set [3] (Homo sapiens), 15.3 µM; in data set [5] (Homo sapiens, MCF7), 19.4 µM. This compound also had an IC50 at 24 h in data set [6] greater than 100 µM. Besides, the “SI2: selectivity index IC50(MCF-10A)/IC50(MDA-MB-231)” value in data set [3] is greater than 6.53. Besides, the “SI1: selectivity index IC50(MCF-10A)/IC50(MCF-7)” value in data set [5] is recorded as greater than 5.15.

As to `Cc1ccc2c(c1)C(=NNC(N)=S)C(=O)N2CCCCOC1O[C@@H]2O[C@@]3(C)CC[C@H]4[C@H](C)CC[C@@H]([C@H]1C)[C@@]24OO3` (stereo partly drawn) [Hybrid 7g, 2-(5-Methyl-2-oxo-1-(4-(((3R,5aS,6R,8aS,9R,12R,12aR)-3,6,9-trimethyldecahydro-12H-3,12-epoxy[1,2]dioxepino[4,3-i]isochromen-10-yl)oxy)butyl)indolin-3-ylidene)hydrazine-1-carbothioamide], the IC50 in data set [1] (Homo sapiens) was 40.6 µM; in data set [2] (Homo sapiens, NCI/ADR-RES), 30.3 µM; in data set [3] (Homo sapiens), 35.1 µM; in data set [5] (Homo sapiens, MCF7), 28.9 µM. The compound also came in with an IC50 at 24 h in data set [6] greater than 100 µM. The “SI2: selectivity index IC50(MCF-10A)/IC50(MDA-MB-231)” value in data set [3] is reported as greater than 2.84. Further, the “SI1: selectivity index IC50(MCF-10A)/IC50(MCF-7)” value in data set [5] is on record as greater than 3.46.

As to `CCON=C1C(=O)N(CCOC2O[C@@H]3O[C@@]4(C)CC[C@H]5[C@H](C)CC[C@@H]([C@H]2C)[C@@]35OO4)c2ccc(C)cc21` (stereo partly drawn) [Hybrid 7i, 3-(Ethoxyimino)-5-methyl-1-(2-(((3R,5aS,6R,8aS,9R,12R,12aR)-3,6,9-trimethyldecahydro-12H-3,12-epoxy[1,2]dioxepino[4,3-i]isochromen-10-yl)oxy)ethyl)indolin-2-one], the IC50 in data set [1] (Homo sapiens) was determined as 72.7 µM; in data set [2] (Homo sapiens, NCI/ADR-RES), 61.8 µM; in data set [3] (Homo sapiens), 70.4 µM; in data set [5] (Homo sapiens, MCF7), 69.3 µM. Besides, the IC50 at 24 h in data set [6] was greater than 100 µM. The “SI2: selectivity index IC50(MCF-10A)/IC50(MDA-MB-231)” value in data set [3] is on record as greater than 1.42. Besides, the “SI1: selectivity index IC50(MCF-10A)/IC50(MCF-7)” value in data set [5] is greater than 1.44.

`Cc1ccc2c(c1)C(=NOCc1ccccc1)C(=O)N2CCOC1O[C@@H]2O[C@@]3(C)CC[C@H]4[C@H](C)CC[C@@H]([C@H]1C)[C@@]24OO3` (stereo partly drawn) [Hybrid 7k, 3-((Benzyloxy)imino)-5-methyl-1-(2-(((3R,5aS,6R,8aS,9R,12R,12aR)-3,6,9-trimethyldecahydro-12H-3,12-epoxy[1,2]dioxepino[4,3-i]isochromen-10-yl)oxy)ethyl)indolin-2-one]: the IC50 was greater than 100 µM in data set [1] (Homo sapiens); greater than 100 µM in data set [2] (Homo sapiens, NCI/ADR-RES); greater than 100 µM in data set [3] (Homo sapiens); greater than 100 µM in data set [5] (Homo sapiens, MCF7). This compound also registered an IC50 at 24 h in data set [6] greater than 100 µM.

Turning to `Cc1ccc2c(c1)C(=NOCc1ccccc1)C(=O)N2CCCCOC1O[C@@H]2O[C@@]3(C)CC[C@H]4[C@H](C)CC[C@@H]([C@H]1C)[C@@]24OO3` (stereo partly drawn) [Hybrid 7m, 3-((Benzyloxy)imino)-5-methyl-1-(4-(((3R,5aS,6R,8aS,9R,12R,12aR)-3,6,9-trimethyldecahydro-12H-3,12-epoxy[1,2]dioxepino[4,3-i]isochromen-10-yl)oxy)butyl)indolin-2-one], the IC50 in data set [1] (Homo sapiens) was greater than 100 µM; in data set [2] (Homo sapiens, NCI/ADR-RES), greater than 100 µM; in data set [3] (Homo sapiens), greater than 100 µM; in data set [5] (Homo sapiens, MCF7), greater than 100 µM. The IC50 at 24 h in data set [6] is greater than 100 µM.
